This is an account of results in ChEMBL document CHEMBL1145498, “A systematic interaction map of validated kinase inhibitors with Ser/Thr kinases” (Proc Natl Acad Sci U S A, 2007).

The target in assay [1] is Serine/threonine-protein kinase OSR1 (Homo sapiens) (UniProt O95747).
Assay [2] concerns the target Dual specificity protein kinase CLK3 (Homo sapiens) (UniProt P49761).
For assay [3], the target named is Dual specificity protein kinase CLK2 (Homo sapiens) (UniProt P49760).
For assay [4], the target named is Serine/threonine-protein kinase pim-3 (Homo sapiens) (UniProt Q86V86).
Assay [5] has as its target Cyclin-dependent kinase 16 (Homo sapiens) (UniProt Q00536).
Assay [6] has as its target Casein kinase I isoform gamma-2 (Homo sapiens) (UniProt P78368).
Assay [7] addresses T1, Serine/threonine-protein kinase PLK4 (Homo sapiens) (UniProt O00444).
T1 sequence (whole entry): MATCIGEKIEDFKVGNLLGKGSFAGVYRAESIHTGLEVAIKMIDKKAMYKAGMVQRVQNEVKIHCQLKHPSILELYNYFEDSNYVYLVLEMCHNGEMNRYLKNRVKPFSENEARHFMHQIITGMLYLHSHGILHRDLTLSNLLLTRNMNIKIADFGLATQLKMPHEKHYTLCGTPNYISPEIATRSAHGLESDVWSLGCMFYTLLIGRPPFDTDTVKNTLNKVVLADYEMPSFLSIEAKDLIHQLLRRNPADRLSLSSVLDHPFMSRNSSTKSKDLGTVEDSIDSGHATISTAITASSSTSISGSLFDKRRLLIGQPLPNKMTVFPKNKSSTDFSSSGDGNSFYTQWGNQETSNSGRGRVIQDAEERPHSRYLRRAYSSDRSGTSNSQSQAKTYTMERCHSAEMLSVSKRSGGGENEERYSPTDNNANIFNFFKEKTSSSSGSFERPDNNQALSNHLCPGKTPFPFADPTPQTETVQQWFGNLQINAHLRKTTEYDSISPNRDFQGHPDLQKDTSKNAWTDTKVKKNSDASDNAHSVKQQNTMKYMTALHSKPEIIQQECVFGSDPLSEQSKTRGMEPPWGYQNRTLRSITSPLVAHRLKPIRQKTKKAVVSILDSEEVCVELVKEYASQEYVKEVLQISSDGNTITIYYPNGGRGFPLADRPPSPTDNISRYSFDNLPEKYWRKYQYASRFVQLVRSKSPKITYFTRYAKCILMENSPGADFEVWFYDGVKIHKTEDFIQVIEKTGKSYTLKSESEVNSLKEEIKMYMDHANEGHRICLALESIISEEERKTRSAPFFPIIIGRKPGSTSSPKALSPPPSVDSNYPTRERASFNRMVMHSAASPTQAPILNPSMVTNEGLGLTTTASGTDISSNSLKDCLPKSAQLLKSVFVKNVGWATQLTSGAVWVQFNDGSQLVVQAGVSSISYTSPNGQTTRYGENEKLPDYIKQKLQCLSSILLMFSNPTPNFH

The target of assay [8] is T2, Lymphokine-activated killer T-cell-originated protein kinase (Homo sapiens) (UniProt Q96KB5).
T2 sequence (whole entry): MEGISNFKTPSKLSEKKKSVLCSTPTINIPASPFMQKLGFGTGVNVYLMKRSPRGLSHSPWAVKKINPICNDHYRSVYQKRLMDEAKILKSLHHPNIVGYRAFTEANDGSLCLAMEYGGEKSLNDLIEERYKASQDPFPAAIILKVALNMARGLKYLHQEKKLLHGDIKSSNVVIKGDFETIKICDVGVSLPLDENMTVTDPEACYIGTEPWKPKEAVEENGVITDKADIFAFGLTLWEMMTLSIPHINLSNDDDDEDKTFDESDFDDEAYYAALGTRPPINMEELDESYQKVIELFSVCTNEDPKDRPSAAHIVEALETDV

In assay [9] the target is Mitogen-activated protein kinase 6 (Homo sapiens) (UniProt Q16659).
Assay [10] deals with Calcium/calmodulin-dependent protein kinase type 1D (Homo sapiens) (UniProt Q8IU85).
Assay [11] concerns the target cAMP-dependent protein kinase catalytic subunit alpha (Homo sapiens) (UniProt P17612).
Assay [12] has as its target Casein kinase I isoform gamma-3 (Homo sapiens) (UniProt Q9Y6M4).
For assay [13], the target named is Dual specificity protein kinase CLK1 (Homo sapiens) (UniProt P49759).
The target of assay [14] is T3, 3-phosphoinositide-dependent protein kinase 1 (Homo sapiens) (UniProt O15530).
T3 sequence (whole entry): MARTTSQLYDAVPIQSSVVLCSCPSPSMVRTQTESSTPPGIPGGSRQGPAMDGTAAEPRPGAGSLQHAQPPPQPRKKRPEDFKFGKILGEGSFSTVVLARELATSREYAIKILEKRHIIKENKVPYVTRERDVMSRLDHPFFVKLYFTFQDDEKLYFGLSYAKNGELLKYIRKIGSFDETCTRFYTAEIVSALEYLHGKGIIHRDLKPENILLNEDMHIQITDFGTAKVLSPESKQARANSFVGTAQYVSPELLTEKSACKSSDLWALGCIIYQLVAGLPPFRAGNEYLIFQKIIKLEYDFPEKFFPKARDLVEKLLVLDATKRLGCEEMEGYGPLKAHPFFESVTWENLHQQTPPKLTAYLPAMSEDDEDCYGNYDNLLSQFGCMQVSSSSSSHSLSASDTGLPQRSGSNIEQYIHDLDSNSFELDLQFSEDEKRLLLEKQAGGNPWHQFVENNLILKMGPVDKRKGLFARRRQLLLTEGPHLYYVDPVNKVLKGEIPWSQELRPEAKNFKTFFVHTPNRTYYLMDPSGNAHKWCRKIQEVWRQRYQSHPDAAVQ

Assay [15] has as its target Serine/threonine-protein kinase RIO2 (Homo sapiens) (UniProt Q9BVS4).
Assay [16] has as its target STE20-like serine/threonine-protein kinase (Homo sapiens) (UniProt Q9H2G2).
Assay [17] addresses Dual specificity mitogen-activated protein kinase kinase 2 (Homo sapiens, UniProt P36507).

What is called ΔTm is the shift of the melting midpoint relative to a reference.

Sequence of Serine/threonine-protein kinase RIO2 (Homo sapiens) (Q9BVS4 whole entry, looked up): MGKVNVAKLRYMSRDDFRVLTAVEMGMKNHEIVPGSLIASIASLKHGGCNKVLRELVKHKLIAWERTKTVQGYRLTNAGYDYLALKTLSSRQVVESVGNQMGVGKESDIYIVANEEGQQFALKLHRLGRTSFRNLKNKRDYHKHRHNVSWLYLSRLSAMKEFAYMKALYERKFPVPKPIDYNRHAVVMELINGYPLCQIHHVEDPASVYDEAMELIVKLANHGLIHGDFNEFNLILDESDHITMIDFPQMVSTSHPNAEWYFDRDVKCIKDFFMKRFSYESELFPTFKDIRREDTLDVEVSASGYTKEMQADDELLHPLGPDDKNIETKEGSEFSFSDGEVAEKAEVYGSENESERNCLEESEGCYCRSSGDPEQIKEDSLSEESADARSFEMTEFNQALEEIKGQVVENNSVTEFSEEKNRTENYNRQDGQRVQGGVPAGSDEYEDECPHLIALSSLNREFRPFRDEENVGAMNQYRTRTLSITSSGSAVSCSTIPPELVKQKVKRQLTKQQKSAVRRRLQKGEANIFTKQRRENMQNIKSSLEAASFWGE
Sequence of Dual specificity protein kinase CLK1 (Homo sapiens) (P49759 whole entry, looked up): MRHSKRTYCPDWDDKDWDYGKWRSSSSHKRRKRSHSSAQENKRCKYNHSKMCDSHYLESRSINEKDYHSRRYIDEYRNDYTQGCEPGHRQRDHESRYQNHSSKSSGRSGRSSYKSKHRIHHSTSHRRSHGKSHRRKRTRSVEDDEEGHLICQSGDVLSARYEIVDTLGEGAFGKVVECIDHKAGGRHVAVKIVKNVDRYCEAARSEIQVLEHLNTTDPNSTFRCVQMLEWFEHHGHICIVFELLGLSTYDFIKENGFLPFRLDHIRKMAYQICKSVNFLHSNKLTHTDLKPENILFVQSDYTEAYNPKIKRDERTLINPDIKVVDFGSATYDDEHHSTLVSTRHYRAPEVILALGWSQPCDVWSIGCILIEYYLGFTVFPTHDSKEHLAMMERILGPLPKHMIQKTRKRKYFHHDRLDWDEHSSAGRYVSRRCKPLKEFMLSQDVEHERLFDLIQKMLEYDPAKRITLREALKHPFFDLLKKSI
Sequence of STE20-like serine/threonine-protein kinase (Homo sapiens) (Q9H2G2 whole entry, looked up): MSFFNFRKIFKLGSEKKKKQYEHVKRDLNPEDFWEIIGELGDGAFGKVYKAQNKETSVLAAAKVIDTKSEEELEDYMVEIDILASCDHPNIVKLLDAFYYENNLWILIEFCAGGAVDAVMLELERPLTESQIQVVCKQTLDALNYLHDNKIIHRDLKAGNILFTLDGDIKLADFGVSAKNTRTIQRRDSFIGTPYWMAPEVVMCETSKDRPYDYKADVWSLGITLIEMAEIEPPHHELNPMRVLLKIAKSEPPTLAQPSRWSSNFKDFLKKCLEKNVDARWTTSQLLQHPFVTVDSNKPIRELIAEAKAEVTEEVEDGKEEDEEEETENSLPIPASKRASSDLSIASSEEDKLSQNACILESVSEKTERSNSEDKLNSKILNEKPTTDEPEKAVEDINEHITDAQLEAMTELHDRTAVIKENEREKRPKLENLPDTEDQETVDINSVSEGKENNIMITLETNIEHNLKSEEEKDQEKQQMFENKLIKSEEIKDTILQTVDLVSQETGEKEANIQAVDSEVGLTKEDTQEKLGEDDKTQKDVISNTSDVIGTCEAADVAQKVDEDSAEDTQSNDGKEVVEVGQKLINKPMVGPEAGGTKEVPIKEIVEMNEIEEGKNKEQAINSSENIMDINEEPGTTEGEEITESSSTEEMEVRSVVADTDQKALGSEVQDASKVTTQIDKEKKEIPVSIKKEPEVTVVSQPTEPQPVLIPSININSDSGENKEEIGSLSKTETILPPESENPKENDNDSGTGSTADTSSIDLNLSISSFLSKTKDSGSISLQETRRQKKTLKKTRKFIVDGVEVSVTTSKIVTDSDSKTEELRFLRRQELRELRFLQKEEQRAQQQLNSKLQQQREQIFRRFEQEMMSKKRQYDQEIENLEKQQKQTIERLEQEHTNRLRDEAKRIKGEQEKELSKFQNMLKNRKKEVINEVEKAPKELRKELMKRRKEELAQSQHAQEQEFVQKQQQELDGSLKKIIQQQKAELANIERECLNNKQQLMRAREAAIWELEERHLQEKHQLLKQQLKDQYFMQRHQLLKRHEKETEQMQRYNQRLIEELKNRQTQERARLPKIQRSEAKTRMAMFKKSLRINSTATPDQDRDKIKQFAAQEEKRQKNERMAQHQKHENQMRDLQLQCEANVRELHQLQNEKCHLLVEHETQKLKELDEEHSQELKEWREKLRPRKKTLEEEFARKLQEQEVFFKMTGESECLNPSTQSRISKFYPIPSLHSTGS
Sequence of Calcium/calmodulin-dependent protein kinase type 1D (Homo sapiens) (Q8IU85 whole entry, looked up): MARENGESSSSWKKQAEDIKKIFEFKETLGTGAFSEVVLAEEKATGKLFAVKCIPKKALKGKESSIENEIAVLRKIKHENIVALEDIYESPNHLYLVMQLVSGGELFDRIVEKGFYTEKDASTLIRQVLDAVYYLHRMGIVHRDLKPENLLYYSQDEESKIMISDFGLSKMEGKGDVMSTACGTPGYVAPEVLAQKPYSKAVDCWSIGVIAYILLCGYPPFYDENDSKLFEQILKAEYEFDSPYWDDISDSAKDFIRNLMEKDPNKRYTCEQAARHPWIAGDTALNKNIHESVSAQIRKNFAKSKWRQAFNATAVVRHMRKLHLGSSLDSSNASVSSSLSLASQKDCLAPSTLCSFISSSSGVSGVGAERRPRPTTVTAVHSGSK
Sequence of Mitogen-activated protein kinase 6 (Homo sapiens) (Q16659 whole entry): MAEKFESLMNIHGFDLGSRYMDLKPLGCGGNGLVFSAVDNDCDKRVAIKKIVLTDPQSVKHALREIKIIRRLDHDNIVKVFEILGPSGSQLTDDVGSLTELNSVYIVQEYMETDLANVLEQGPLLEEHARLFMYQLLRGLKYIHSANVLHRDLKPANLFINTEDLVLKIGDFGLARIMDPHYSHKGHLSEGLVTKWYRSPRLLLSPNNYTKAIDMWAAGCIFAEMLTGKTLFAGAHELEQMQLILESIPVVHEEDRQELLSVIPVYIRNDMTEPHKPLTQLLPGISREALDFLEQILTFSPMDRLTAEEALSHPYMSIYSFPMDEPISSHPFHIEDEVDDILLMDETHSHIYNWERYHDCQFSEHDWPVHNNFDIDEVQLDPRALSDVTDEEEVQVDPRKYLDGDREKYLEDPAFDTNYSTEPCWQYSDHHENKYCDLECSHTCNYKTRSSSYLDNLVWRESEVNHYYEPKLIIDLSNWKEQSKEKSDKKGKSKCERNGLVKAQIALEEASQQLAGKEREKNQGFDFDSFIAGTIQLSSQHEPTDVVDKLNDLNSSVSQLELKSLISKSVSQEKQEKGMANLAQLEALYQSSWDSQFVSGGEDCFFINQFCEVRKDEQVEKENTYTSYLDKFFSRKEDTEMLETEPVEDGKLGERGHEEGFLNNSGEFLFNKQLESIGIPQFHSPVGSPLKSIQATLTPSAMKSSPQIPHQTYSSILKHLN
Sequence of Serine/threonine-protein kinase OSR1 (Homo sapiens) (O95747 2-527 limits assumed): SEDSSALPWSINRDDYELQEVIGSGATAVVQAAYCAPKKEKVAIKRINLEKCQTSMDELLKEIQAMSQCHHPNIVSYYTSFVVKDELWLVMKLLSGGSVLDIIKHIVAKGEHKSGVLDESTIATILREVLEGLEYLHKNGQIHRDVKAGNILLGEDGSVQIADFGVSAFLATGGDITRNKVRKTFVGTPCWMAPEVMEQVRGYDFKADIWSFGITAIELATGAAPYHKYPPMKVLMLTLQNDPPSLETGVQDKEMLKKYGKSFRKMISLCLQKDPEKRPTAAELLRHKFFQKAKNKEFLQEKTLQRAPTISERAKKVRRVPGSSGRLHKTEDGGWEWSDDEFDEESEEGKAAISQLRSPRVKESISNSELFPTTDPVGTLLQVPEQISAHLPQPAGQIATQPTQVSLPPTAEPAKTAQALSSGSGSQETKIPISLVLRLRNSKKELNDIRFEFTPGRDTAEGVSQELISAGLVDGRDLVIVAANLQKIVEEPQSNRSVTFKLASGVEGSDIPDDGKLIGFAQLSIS
Sequence of Dual specificity mitogen-activated protein kinase kinase 2 (P36507 whole entry): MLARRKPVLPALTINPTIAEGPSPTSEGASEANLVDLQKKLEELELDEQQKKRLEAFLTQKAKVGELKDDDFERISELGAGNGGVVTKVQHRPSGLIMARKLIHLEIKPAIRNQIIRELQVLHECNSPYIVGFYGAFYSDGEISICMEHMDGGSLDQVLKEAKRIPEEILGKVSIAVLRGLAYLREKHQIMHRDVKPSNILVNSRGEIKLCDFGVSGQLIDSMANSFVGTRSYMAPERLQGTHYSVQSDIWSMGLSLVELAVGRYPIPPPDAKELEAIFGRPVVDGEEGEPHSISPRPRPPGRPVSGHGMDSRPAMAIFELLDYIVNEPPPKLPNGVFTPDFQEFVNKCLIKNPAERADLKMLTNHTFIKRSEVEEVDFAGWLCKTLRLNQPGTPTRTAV

For the compound `CC(C)n1cnc2c(NCc3ccccc3O)nc(NCCCO)nc21`, the ΔTm is 0.3 °C in assay [1]; 0.1 °C in [2]; 1 °C in [3]; 0.4 °C in assay [4]; -0.2 °C in assay [5]; 0.7 °C in assay [6]. For the same compound, the ΔTm in [7] was determined as 0.1 °C; in [8], 0.7 °C; in [9] it was 0 °C; in assay [10], 0 °C; in assay [11], 0.2 °C; in assay [12] it was 0.5 °C. The ΔTm in assay [13] was 0.9 °C; in assay [14], 0.1 °C; in assay [15], -0.1 °C; in [16], 0 °C; in assay [17], -0.2 °C.

Take `O=c1cc(N2CCOCC2)oc2c(-c3ccccc3)cccc12`: the ΔTm in assay [1] amounted to 0.4 °C; in [2], 0.1 °C; in assay [3], 0.1 °C; in assay [4] it was 2.8 °C; in assay [5], 0 °C; in assay [6] it was 0.4 °C. The ΔTm was 0 °C in [7]; -0.5 °C in assay [8]; 0.6 °C in assay [9]; 0.3 °C in assay [10]; -0.1 °C in assay [11]; 0.7 °C in assay [12]. For the same compound, the ΔTm in [13] was 1.3 °C; in [14], 0 °C; in assay [15], 1 °C; in [16] it was -0.1 °C; in assay [17], -0.3 °C.

On to `N#C/C(=C\c1ccc(O)c(O)c1)C(=O)Nc1ccccc1`, for which the ΔTm in assay [1] was 0.6 °C; in assay [2] it was 0.2 °C; in assay [3], 0.9 °C; in [4], 2.8 °C; in [5], -0.5 °C; in [6], 1.2 °C. Moreover, the ΔTm in assay [7] was found to be 1.3 °C; in [8] it was 0.5 °C; in [9] it was 0.5 °C; in assay [10] it was 0.3 °C; in assay [11] it was 0.4 °C; in assay [12] it was 1.2 °C. Besides, the ΔTm in [13] is 1 °C; in assay [14] it was -0.3 °C; in assay [15] it was 0.5 °C; in assay [16] it was 1.8 °C; in [17], 0.3 °C.

Consider `O=[N+]([O-])c1ccc(-c2nc(-c3ccc(F)cc3)c(-c3ccncc3)[nH]2)cc1`, for which the ΔTm in assay [1] is -0.3 °C; in assay [2], 0.1 °C; in [3] it was 0.1 °C; in [4], 0.7 °C; in [5], -0.9 °C; in [6], 1.7 °C. In addition, the ΔTm in assay [7] turned out to be 1.8 °C; in assay [8] it was 0.3 °C; in [9], 0.4 °C; in assay [10] it was 0.2 °C; in assay [11] it was 1.6 °C; in assay [12], 2.6 °C. In addition, the ΔTm was -1.2 °C in [13]; -0.1 °C in assay [14]; 2.5 °C in assay [15]; 5.4 °C in assay [16]; 0.3 °C in [17].

For the compound `O=C1c2ccccc2-c2n[nH]c3cccc1c23`, the ΔTm is 3.2 °C in assay [1]; 2 °C in assay [2]; 3 °C in assay [3]; 4.8 °C in assay [4]; 0.1 °C in [5]; 2.5 °C in assay [6]. The ΔTm in [7] was 6.3 °C; in assay [8], 0.8 °C; in assay [9], 0.5 °C; in [10] it was 2.1 °C; in assay [11], 2.3 °C; in [12], 2 °C. Besides, the thermal shift (ΔTm) is 4.7 °C in assay [13]; -0.1 °C in assay [14]; 2.2 °C in assay [15]; 2.2 °C in assay [16]; 1.3 °C in assay [17].

`COc1cc2ncnc(Nc3cccc(O)c3)c2cc1OC`: the ΔTm in assay [1] was 0.2 °C; in assay [2] it was 0.5 °C; in assay [3] it was 1.3 °C; in assay [4] it was 2 °C; in assay [5] it was -0.6 °C; in [6] it was 1.5 °C. Besides, the ΔTm in [7] was 3.9 °C; in [8], -0.1 °C; in assay [9], 0.1 °C; in assay [10], -0.1 °C; in assay [11], 0.1 °C; in [12] it was 0.8 °C. The ΔTm in [13] amounted to 3.8 °C; in assay [14], 0 °C; in assay [15] it was 3.4 °C; in assay [16], 3.2 °C; in assay [17], 0.1 °C.

As for `O=C(O)Cc1ccc(O)c([N+](=O)[O-])c1`, the ΔTm in [1] was 0 °C; in assay [2], -0.6 °C; in assay [3] it was 0.5 °C; in [4], 0.1 °C; in assay [5] it was -1.2 °C; in [6] it was 1 °C. For the same compound, the ΔTm in assay [7] is 0.8 °C; in [8], 0.6 °C; in assay [9] it was 0.8 °C; in [10], 0 °C; in assay [11], -0.9 °C; in [12] it was 0.5 °C. In addition, the ΔTm in assay [13] is -0.6 °C; in [14], -0.6 °C; in [15], -0.1 °C; in assay [16] it was 0 °C; in assay [17], 0.1 °C.

Take `O=c1cc(-c2ccc(O)cc2)oc2cc(O)cc(O)c12`: the ΔTm is 2.2 °C in assay [1]; 3.1 °C in assay [2]; 2.8 °C in assay [3]; 4.6 °C in [4]; 1.2 °C in [5]; 0.7 °C in [6]. In addition, the ΔTm is 5.2 °C in assay [7]; 0.5 °C in assay [8]; 0.5 °C in assay [9]; 1 °C in assay [10]; 1.7 °C in assay [11]; 0.7 °C in assay [12]. Besides, the ΔTm in [13] is 3.9 °C; in assay [14], -1.9 °C; in assay [15] it was 0.2 °C; in assay [16], 2.4 °C; in assay [17], 0.7 °C.
